Results on eight compounds are retold here after PubChem BioAssay AID1259407 (Chemical Carcinogenesis Research Information System (CCRIS), 2018).

This series concerns CCRIS mutagenicity, Ames/micronucleus/aberration tests. As to the kind of experiment: CCRIS mutagenicity studies.
Where [1] appears, read: Test System: AMES SALMONELLA TYPHIMURIUM, Strain/Indicator: TA98, Metabolic Activation: NONE, Method: STANDARD PLATE.
Setting [2] is: Test System: AMES SALMONELLA TYPHIMURIUM, Strain/Indicator: TA98, Metabolic Activation: RAT, LIVER, S-9, AROCLOR 1254, Method: STANDARD PLATE.
Where [3] appears, read: Test System: AMES SALMONELLA TYPHIMURIUM, Strain/Indicator: TA100, Metabolic Activation: NONE, Method: STANDARD PLATE.
Where [4] appears, read: Test System: AMES SALMONELLA TYPHIMURIUM, Strain/Indicator: TA100, Metabolic Activation: RAT, LIVER, S-9, AROCLOR 1254, Method: STANDARD PLATE.
Setting [5] is: Test System: AMES SALMONELLA TYPHIMURIUM, Strain/Indicator: TA1535, Metabolic Activation: NONE, Method: STANDARD PLATE.

The structures appear in SMILES notation. Active and inactive are the calls of the source. The rule behind the calls is not given here.

On to `CCOC(=O)c1[nH]c2ccccc2c1N=Cc1cc(OC)c(OC)c(OC)c1`, for which the mutagenic call reads like this: (Test System: AMES SALMONELLA TYPHIMURIUM, Strain/Indicator: TA97, Metabolic Activation: NONE, Method: STANDARD PLATE) “active; positive”; (Test System: AMES SALMONELLA TYPHIMURIUM, Strain/Indicator: TA97, Metabolic Activation: RAT, LIVER, S-9, AROCLOR 1254, Method: STANDARD PLATE) “inactive; negative”; under setting [1], “inactive; negative”; under setting [2], “inactive; negative”; under setting [3], “inactive; negative”; under setting [4], “inactive; negative”. In addition, the mutagenic call (Test System: AMES SALMONELLA TYPHIMURIUM, Strain/Indicator: TA102, Metabolic Activation: NONE, Method: STANDARD PLATE) was “inactive; negative” and the mutagenic call (Test System: AMES SALMONELLA TYPHIMURIUM, Strain/Indicator: TA102, Metabolic Activation: RAT, LIVER, S-9, AROCLOR 1254, Method: STANDARD PLATE) is “inactive; negative”.
For `CCc1cc(-c2ccccc2)cc(CC)c1N`, the mutagenic call was “inactive; negative” under setting [1]; “inactive; negative” (Test System: AMES SALMONELLA TYPHIMURIUM, Strain/Indicator: TA98, Metabolic Activation: RAT LIVER S-9, AROCLOR, Method: STANDARD PLATE); “inactive; negative” under setting [3]; “inactive; negative” (Test System: AMES SALMONELLA TYPHIMURIUM, Strain/Indicator: TA100, Metabolic Activation: RAT LIVER S-9, AROCLOR, Method: STANDARD PLATE).
`O=S(O)CO`: the mutagenic call by setting is: (Test System: AMES SALMONELLA TYPHIMURIUM, Strain/Indicator: TA98, Metabolic Activation: NONE, Method: PREINCUBATION) “inactive; negative”; (Test System: AMES SALMONELLA TYPHIMURIUM, Strain/Indicator: TA98, Metabolic Activation: RAT LIVER S-9, PHENOBARBITAL AND BETA-NAPHTHOFLAVONE, Method: PREINCUBATION) “inactive; negative”; (Test System: AMES SALMONELLA TYPHIMURIUM, Strain/Indicator: TA100, Metabolic Activation: NONE, Method: PREINCUBATION) “inactive; negative”; (Test System: AMES SALMONELLA TYPHIMURIUM, Strain/Indicator: TA100, Metabolic Activation: RAT LIVER S-9, PHENOBARBITAL AND BETA-NAPHTHOFLAVONE, Method: PREINCUBATION) “inactive; negative”; (Test System: AMES SALMONELLA TYPHIMURIUM, Strain/Indicator: TA102, Metabolic Activation: NONE, Method: PREINCUBATION) “inactive; negative”; (Test System: AMES SALMONELLA TYPHIMURIUM, Strain/Indicator: TA102, Metabolic Activation: RAT LIVER S-9, PHENOBARBITAL AND BETA-NAPHTHOFLAVONE, Method: PREINCUBATION) “inactive; negative”. Further, the mutagenic call (Test System: AMES SALMONELLA TYPHIMURIUM, Strain/Indicator: TA104, Metabolic Activation: NONE, Method: PREINCUBATION) is “inactive; negative”; the mutagenic call (Test System: AMES SALMONELLA TYPHIMURIUM, Strain/Indicator: TA104, Metabolic Activation: RAT LIVER S-9, PHENOBARBITAL AND BETA-NAPHTHOFLAVONE, Method: PREINCUBATION) is “inactive; negative”; the mutagenic call (Test System: AMES SALMONELLA TYPHIMURIUM, Strain/Indicator: TA1535, Metabolic Activation: NONE, Method: PREINCUBATION) is “inactive; negative”; the mutagenic call (Test System: AMES SALMONELLA TYPHIMURIUM, Strain/Indicator: TA1535, Metabolic Activation: RAT LIVER S-9, PHENOBARBITAL AND BETA-NAPHTHOFLAVONE, Method: PREINCUBATION) was “inactive; negative”; the mutagenic call (Test System: AMES SALMONELLA TYPHIMURIUM, Strain/Indicator: TA1537, Metabolic Activation: NONE, Method: PREINCUBATION) is “inactive; negative”; the mutagenic call (Test System: AMES SALMONELLA TYPHIMURIUM, Strain/Indicator: TA1537, Metabolic Activation: RAT LIVER S-9, PHENOBARBITAL AND BETA-NAPHTHOFLAVONE, Method: PREINCUBATION) is “inactive; negative”. In addition, the mutagenic call is “inactive; negative” (Test System: E.COLI, Strain/Indicator: WP2UVRA/PKM101, Metabolic Activation: NONE, Method: PREINCUBATION); “inactive; negative” (Test System: E.COLI, Strain/Indicator: WP2UVRA/PKM101, Metabolic Activation: RAT LIVER S-9, PHENOBARBITAL AND BETA-NAPHTHOFLAVONE, Method: PREINCUBATION); “inactive; negative” (Test System: E.COLI, Strain/Indicator: WP2UVRA, Metabolic Activation: NONE, Method: PREINCUBATION); “inactive; negative” (Test System: E.COLI, Strain/Indicator: WP2UVRA, Metabolic Activation: RAT LIVER S-9, PHENOBARBITAL AND BETA-NAPHTHOFLAVONE, Method: PREINCUBATION).
With `[N-]=[N+]=N[C@H](c1ccccc1)[C@@H](O)CO`, the mutagenic call (Test System: AMES SALMONELLA TYPHIMURIUM, Strain/Indicator: TA100, Metabolic Activation: RAT, LIVER, S-9, PCB, Method: PREINCUBATION) is “active; positive”.
With `CS(=O)(=O)O`, the mutagenic call is, setting by setting: under setting [3], “inactive; negative”; (Test System: AMES SALMONELLA TYPHIMURIUM, Strain/Indicator: TA100, Metabolic Activation: RAT, LIVER, S-9, AROCLOR 1254 (10%), Method: STANDARD PLATE) “inactive; negative”; under setting [5], “inactive; negative”; (Test System: AMES SALMONELLA TYPHIMURIUM, Strain/Indicator: TA1535, Metabolic Activation: RAT, LIVER, S-9, AROCLOR 1254 (10%), Method: STANDARD PLATE) “inactive; negative”.
Turning to `CCCCNc1snc2ccccc12`, the mutagenic call by setting is: under setting [1], “inactive; negative”; (Test System: AMES SALMONELLA TYPHIMURIUM, Strain/Indicator: TA98, Metabolic Activation: S-9, Method: STANDARD PLATE) “inactive; negative”; under setting [3], “inactive; negative”; (Test System: AMES SALMONELLA TYPHIMURIUM, Strain/Indicator: TA100, Metabolic Activation: S-9, Method: STANDARD PLATE) “inactive; negative”; under setting [5], “inactive; negative”; (Test System: AMES SALMONELLA TYPHIMURIUM, Strain/Indicator: TA1535, Metabolic Activation: S-9, Method: STANDARD PLATE) “inactive; negative”. Also, the mutagenic call was “inactive; negative” (Test System: AMES SALMONELLA TYPHIMURIUM, Strain/Indicator: TA1537, Metabolic Activation: NONE, Method: STANDARD PLATE) and “inactive; negative” (Test System: AMES SALMONELLA TYPHIMURIUM, Strain/Indicator: TA1537, Metabolic Activation: S-9, Method: STANDARD PLATE).
On to `O=NN(C1CCCCC1)C1CCCCC1`, for which, for the setting “End Point: IN VITRO MICRONUCLEUS, Test System: HUMAN LYMPHOCYTES, Metabolic Activation: NONE”, the mutagenic call is “active; positive”.
For `CC(=O)N(O)c1ccc(Br)cc1`, the mutagenic call was “inactive; negative” under setting [1], “inactive; negative” under setting [2], “inactive; negative” under setting [3] and “inactive; negative” under setting [4].
